Assay results: ChEMBL document CHEMBL1201861, “Genomics of Drug Sensitity in Cancer screening data, Wellcome Trust Sanger Institute”

Experiments:
NCI-H2196 = test: cells; type: functional, cell-based; conditions: Homo sapiens;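 further: cell viability assay used as the readout of growth inhibition in NCI-H2196 cells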
Description: SANGER: Inhibition of human NCI-H2196 cell growth in a cell viability assay.

DU-145 = test: cells; type: functional, cell-based; conditions: Homo sapiens
Description: SANGER: Inhibition of human DU-145 cell growth in a cell viability assay.

NCI-H2081 = test: cells; type: functional, cell-based; conditions: Homo sapiens;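 further: growth inhibition of human NCI-H2081 cells, read out with a cell viability assay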
Description: SANGER: Inhibition of human NCI-H2081 cell growth in a cell viability assay.

YAPC = test: cells; type: functional, cell-based; conditions: Homo sapiens;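 further: growth inhibition of YAPC cells, measured with a cell viability assay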
Description: SANGER: Inhibition of human YAPC cell growth in a cell viability assay.

Ca9-22 = test: cells; type: functional, cell-based; conditions: Homo sapiens;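 further: growth inhibition of Ca9-22 cells, read out with a cell viability assay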
Description: SANGER: Inhibition of human Ca9-22 cell growth in a cell viability assay.

GP5d = test: cells; type: functional, cell-based; conditions: Homo sapiens;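 further: growth inhibition of human GP5d cells, read out with a cell viability assay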
Description: SANGER: Inhibition of human GP5d cell growth in a cell viability assay.

MCF7 = test: cells; type: functional, cell-based; conditions: Homo sapiens;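 further: growth inhibition of human MCF7 cells, read out with a cell viability assay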
Description: SANGER: Inhibition of human MCF7 cell growth in a cell viability assay.

NCI-H748 = test: cells; type: functional, cell-based; conditions: Homo sapiens;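 further: growth inhibition of NCI-H748 cells, measured by a cell viability assay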
Description: SANGER: Inhibition of human NCI-H748 cell growth in a cell viability assay.

NCI-H1703 = test: cells; type: functional, cell-based; conditions: Homo sapiens;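 further: growth inhibition of NCI-H1703 cells, read out via a cell viability assay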
Description: SANGER: Inhibition of human NCI-H1703 cell growth in a cell viability assay.

REH = test: cells; type: functional, cell-based; conditions: Homo sapiens;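 further: growth inhibition of REH cells determined with a cell viability read-out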
Description: SANGER: Inhibition of human REH cell growth in a cell viability assay.

DG-75 = test: cells; type: functional, cell-based; conditions: Homo sapiens;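 further: growth inhibition of DG-75 cells, read out with a cell viability assay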
Description: SANGER: Inhibition of human DG-75 cell growth in a cell viability assay.

CHP-126 = test: cells; type: functional, cell-based; conditions: Homo sapiens
Description: SANGER: Inhibition of human CHP-126 cell growth in a cell viability assay.

HT-1080 = test: cells; type: functional, cell-based; conditions: Homo sapiens
Description: SANGER: Inhibition of human HT-1080 cell growth in a cell viability assay.

CHP-212 = test: cells; type: functional, cell-based; conditions: Homo sapiens
Description: SANGER: Inhibition of human CHP-212 cell growth in a cell viability assay.

HCC1395 = test: cells; type: functional, cell-based; conditions: Homo sapiens;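 further: growth inhibition of HCC1395 cells, read out by a cell viability assay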
Description: SANGER: Inhibition of human HCC1395 cell growth in a cell viability assay.

SNU-423 = test: cells; type: functional, cell-based; conditions: Homo sapiens
Description: SANGER: Inhibition of human SNU-423 cell growth in a cell viability assay.

U-698-M = test: cells; type: functional, cell-based; conditions: Homo sapiens
Description: SANGER: Inhibition of human U-698-M cell growth in a cell viability assay.

LB647-SCLC = test: cells; type: functional, cell-based; conditions: Homo sapiens;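 further: cell growth inhibition, read out by a viability assay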
Description: SANGER: Inhibition of human LB647-SCLC cell growth in a cell viability assay.

SIG-M5 = test: cells; type: functional, cell-based; conditions: Homo sapiens;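 further: cell viability assay read-out, measuring how strongly growth of cultured human SIG-M5 cells is inhibited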
Description: SANGER: Inhibition of human SIG-M5 cell growth in a cell viability assay.

SK-MM-2 = test: cells; type: functional, cell-based; conditions: Homo sapiens;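 further: growth inhibition of human SK-MM-2 cells, read out with a cell viability assay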
Description: SANGER: Inhibition of human SK-MM-2 cell growth in a cell viability assay.

EFO-21 = test: cells; type: functional, cell-based; conditions: Homo sapiens;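 further: growth inhibition of EFO-21 cells measured with a viability assay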
Description: SANGER: Inhibition of human EFO-21 cell growth in a cell viability assay.

CP50-MEL-B = test: cells; type: functional, cell-based; conditions: Homo sapiens;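 further: growth inhibition of the human cell line, measured with a cell viability read-out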
Description: SANGER: Inhibition of human CP50-MEL-B cell growth in a cell viability assay.

EHEB = test: cells; type: functional, cell-based; conditions: Homo sapiens;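 further: growth inhibition of human EHEB cells, read out with a cell viability assay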
Description: SANGER: Inhibition of human EHEB cell growth in a cell viability assay.

LB996-RCC = test: cells; type: functional, cell-based; conditions: Homo sapiens
Description: SANGER: Inhibition of human LB996-RCC cell growth in a cell viability assay.

NCI-H1792 = test: cells; type: functional, cell-based; conditions: Homo sapiens;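 further: growth inhibition of human NCI-H1792 cells, read out as cell viability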
Description: SANGER: Inhibition of human NCI-H1792 cell growth in a cell viability assay.

TE-441-T = test: cells; type: functional, cell-based; conditions: Homo sapiens
Description: SANGER: Inhibition of human TE-441-T cell growth in a cell viability assay.

NCI-H2171 = test: cells; type: functional, cell-based; conditions: Homo sapiens;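 further: growth inhibition of human NCI-H2171 cells, read out by a cell viability assay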
Description: SANGER: Inhibition of human NCI-H2171 cell growth in a cell viability assay.

WSU-NHL = test: cells; type: functional, cell-based; conditions: Homo sapiens;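 further: growth inhibition of human WSU-NHL cells, read out with a cell viability assay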
Description: SANGER: Inhibition of human WSU-NHL cell growth in a cell viability assay.

HCT-15 = test: cells; type: functional, cell-based; conditions: Homo sapiens;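 further: cell viability readout, IC50 reflecting suppression of HCT-15 cell growth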
Description: SANGER: Inhibition of human HCT-15 cell growth in a cell viability assay.

COLO-680N = test: cells; type: functional, cell-based; conditions: Homo sapiens;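 further: cell viability assay used to measure inhibition of COLO-680N cell growth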
Description: SANGER: Inhibition of human COLO-680N cell growth in a cell viability assay.

NCI-H727 = test: cells; type: functional, cell-based; conditions: Homo sapiens;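 further: growth inhibition of human NCI-H727 cells, read out with a cell viability assay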
Description: SANGER: Inhibition of human NCI-H727 cell growth in a cell viability assay.

LU-165 = test: cells; type: functional, cell-based; conditions: Homo sapiens
Description: SANGER: Inhibition of human LU-165 cell growth in a cell viability assay.

ME-180 = test: cells; type: functional, cell-based; conditions: Homo sapiens;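 further: cell viability assay measuring growth inhibition of ME-180 cells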
Description: SANGER: Inhibition of human ME-180 cell growth in a cell viability assay.

PANC-08-13 = test: cells; type: functional, cell-based; conditions: Homo sapiens
Description: SANGER: Inhibition of human PANC-08-13 cell growth in a cell viability assay.

A253 cell line = test: cells; type: functional, cell-based; conditions: Homo sapiens;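 further: growth inhibition of A253 cells, read out with a cell viability assay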
Description: SANGER: Inhibition of human A253 cell growth in a cell viability assay.

EFM-19 = test: cells; type: functional, cell-based; conditions: Homo sapiens;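 further: growth inhibition of human EFM-19 cells, measured in a cell viability assay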
Description: SANGER: Inhibition of human EFM-19 cell growth in a cell viability assay.

DMS-153 = test: cells; type: functional, cell-based; conditions: Homo sapiens
Description: SANGER: Inhibition of human DMS-153 cell growth in a cell viability assay.

CAL-120 = test: cells; type: functional, cell-based; conditions: Homo sapiens;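 further: cell growth inhibition, read out as cell viability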
Description: SANGER: Inhibition of human CAL-120 cell growth in a cell viability assay.

Detroit 562 = test: cells; type: functional, cell-based; conditions: Homo sapiens;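 further: growth inhibition of human Detroit 562 cells, read out by a cell viability assay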
Description: SANGER: Inhibition of human Detroit562 cell growth in a cell viability assay.

U-251 = test: cells; type: functional, cell-based; conditions: Homo sapiens;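 further: growth inhibition of human U-251 cells, read out through a cell viability assay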
Description: SANGER: Inhibition of human U251 cell growth in a cell viability assay.

HuCCT-1 = test: cells; type: functional, cell-based, HuCCT1; conditions: Homo sapiens;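 further: growth inhibition of HuCCT-1 cells, read out by a cell viability assay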
Description: SANGER: Inhibition of human HuCCT1 cell growth in a cell viability assay.

OVCAR-3 = test: cells; type: functional, cell-based; conditions: Homo sapiens;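 further: growth inhibition of human OVCAR-3 cells, determined by a cell viability assay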
Description: SANGER: Inhibition of human OVCAR-3 cell growth in a cell viability assay.

HPAF-II = test: cells; type: functional, cell-based; conditions: Homo sapiens;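 further: growth inhibition of HPAF-II cells, read out with a cell viability assay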
Description: SANGER: Inhibition of human HPAF-II cell growth in a cell viability assay.

HEC-1 = test: cells; type: functional, cell-based; conditions: Homo sapiens;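 further: growth inhibition of the cell line, read out with a cell viability assay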
Description: SANGER: Inhibition of human HEC-1 cell growth in a cell viability assay.

LU-99A = test: cells; type: functional, cell-based; conditions: Homo sapiens;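 further: growth inhibition of LU-99A cells, read out with a cell viability assay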
Description: SANGER: Inhibition of human LU-99A cell growth in a cell viability assay.

BPH-1 = test: cells; type: functional, cell-based; conditions: Homo sapiens;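 further: cell viability assay measuring growth inhibition of human BPH-1 cells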
Description: SANGER: Inhibition of human BPH-1 cell growth in a cell viability assay.

NCI-H2342 = test: cells; type: functional, cell-based; conditions: Homo sapiens;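 further: growth inhibition of the cancer cell line, determined with a cell viability assay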
Description: SANGER: Inhibition of human NCI-H2342 cell growth in a cell viability assay.

RPMI 8402 = test: SANGER: Inhibition of human RPMI-8402 cell growth in a cell viability assay.; type: functional, cell-based
8305C = test: cells; type: functional, cell-based; conditions: Homo sapiens
Description: SANGER: Inhibition of human 8305C cell growth in a cell viability assay.

RCM-1 = test: cells; type: functional, cell-based; conditions: Homo sapiens;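 further: growth inhibition of the RCM-1 line, determined with a cell viability readout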
Description: SANGER: Inhibition of human RCM-1 cell growth in a cell viability assay.

FTC-133 = test: cells; type: functional, cell-based; conditions: Homo sapiens
MEL-HO = test: cells; type: functional, cell-based; conditions: Homo sapiens
Description: SANGER: Inhibition of human MEL-HO cell growth in a cell viability assay.

CAPAN-1 = test: cells; type: functional, cell-based; conditions: Homo sapiens;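 further: growth suppression of CAPAN-1 cells, read out by a cell viability assay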
Description: SANGER: Inhibition of human CAPAN-1 cell growth in a cell viability assay.

BT-20 = test: cells; type: functional, cell-based; conditions: Homo sapiens;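 further: cell viability assay measuring suppression of growth in human BT-20 cells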
Description: SANGER: Inhibition of human BT-20 cell growth in a cell viability assay.

KMS-12-PE = test: cells; type: functional, cell-based; conditions: Homo sapiens;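 further: growth inhibition of human KMS-12-PE cells, measured with a cell viability assay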
Description: SANGER: Inhibition of human KMS-12-PE cell growth in a cell viability assay.

IGROV-1 = test: cells; type: functional, cell-based; conditions: Homo sapiens;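 further: reduction of IGROV-1 cell growth, read out with a viability assay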
Description: SANGER: Inhibition of human IGROV-1 cell growth in a cell viability assay.

HCC 2998 = test: cells; type: functional, cell-based; conditions: Homo sapiens;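 further: growth inhibition of human HCC2998 cells, measured with a cell viability read-out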
Description: SANGER: Inhibition of human HCC2998 cell growth in a cell viability assay.

SBC-5 = test: cells; type: functional, cell-based; conditions: Homo sapiens;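 further: cell viability assay read-out, IC50 is the concentration that inhibits growth of the cells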
Description: SANGER: Inhibition of human SBC-5 cell growth in a cell viability assay.

CHL-1 = test: cells; type: functional, cell-based; conditions: Homo sapiens;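 further: cell growth inhibition, read out with a cell viability assay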
Description: SANGER: Inhibition of human CHL-1 cell growth in a cell viability assay.

SW-620 = test: cells; type: functional, cell-based; conditions: Homo sapiens;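 further: growth inhibition of human SW-620 cells, measured by a cell viability assay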
Description: SANGER: Inhibition of human SW620 cell growth in a cell viability assay.

Ca-Ski = test: cells; type: functional, cell-based; conditions: Homo sapiens;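 further: cell viability assay measuring inhibition of Ca-Ski cell growth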
Description: SANGER: Inhibition of human Ca-Ski cell growth in a cell viability assay.

NCI-H2122 = test: cells; type: functional, cell-based; conditions: Homo sapiens;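 further: growth inhibition of the cells, read out with a cell viability assay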
Description: SANGER: Inhibition of human NCI-H2122 cell growth in a cell viability assay.

NB14 = test: cells; type: functional, cell-based; conditions: Homo sapiens;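 further: growth inhibition of NB14 cells measured with a cell viability assay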
Description: SANGER: Inhibition of human NB14 cell growth in a cell viability assay.

`CC(C)=CC[C@@H](O)C1=CC(=O)c2c(O)ccc(O)c2C1=O` [SHIKONIN] showed an IC50 (NCI-H2196) of 0.654 µM, an IC50 (DU-145) of 0.193 µM and an IC50 (NCI-H2081) of 1.52 µM. For the same compound, the IC50 (YAPC) was > 16 µM, the IC50 (Ca9-22) was 0.581 µM and the IC50 (GP5d) was 1.34 µM. The IC50 (MCF7) was 0.435 µM, the IC50 (NCI-H748) was 1.78 µM and the IC50 (NCI-H1703) was 2.3 µM. The IC50 (REH) was 0.147 µM, the IC50 (DG-75) was 1.17 µM and the IC50 (CHP-126) was 0.695 µM. The IC50 (HT-1080) was 0.26 µM, the IC50 (CHP-212) was 1.1 µM and the IC50 (HCC1395) was 15.7 µM. It also gave an IC50 (SNU-423) of 0.163 µM, an IC50 (U-698-M) of 0.301 µM and an IC50 (LB647-SCLC) of 0.233 µM. For the same compound, the IC50 (SIG-M5) was 0.17 µM, the IC50 (SK-MM-2) was 0.499 µM and the IC50 (EFO-21) was 1.34 µM. The IC50 (CP50-MEL-B) was 1.43 µM, the IC50 (EHEB) was 2.09 µM and the IC50 (LB996-RCC) was > 16 µM. The IC50 (NCI-H1792) was > 16 µM, the IC50 (TE-441-T) was < 0.0625 µM and the IC50 (NCI-H2171) was 0.909 µM. For the same compound, the IC50 (WSU-NHL) was 0.26 µM, the IC50 (HCT-15) was 0.268 µM and the IC50 (COLO-680N) was 0.59 µM. It also gave an IC50 (NCI-H727) of 0.638 µM, an IC50 (LU-165) of 0.634 µM and an IC50 (ME-180) of 0.279 µM. The IC50 (PANC-08-13) was 10.4 µM, the IC50 (A253 cell line) was < 0.0625 µM and the IC50 (EFM-19) was 0.212 µM. The IC50 (DMS-153) was > 16 µM, the IC50 (CAL-120) was 1.36 µM and the IC50 (Detroit 562) was > 16 µM. It also gave an IC50 (U-251) of 1.43 µM, an IC50 (HuCCT-1) of 0.483 µM and an IC50 (OVCAR-3) of 0.383 µM. The IC50 (HPAF-II) was 1.27 µM, the IC50 (HEC-1) was 1.13 µM and the IC50 (LU-99A) was 1.3 µM. The IC50 (BPH-1) was 1.26 µM, the IC50 (NCI-H2342) was 0.134 µM and the IC50 (RPMI 8402) was 1.5 µM. It also gave an IC50 (8305C) of 0.305 µM, an IC50 (RCM-1) of 2 µM and an IC50 (FTC-133) of 5.74 µM. For the same compound, the IC50 (MEL-HO) was 0.149 µM, the IC50 (CAPAN-1) was 0.759 µM and the IC50 (BT-20) was 2.56 µM. The IC50 (KMS-12-PE) was 0.559 µM, the IC50 (IGROV-1) was 0.0556 µM and the IC50 (HCC 2998) was > 16 µM. The IC50 (SBC-5) was 0.215 µM, the IC50 (CHL-1) was 0.168 µM and the IC50 (SW-620) was 0.359 µM. For the same compound, the IC50 (Ca-Ski) was 0.65 µM and the IC50 (NCI-H2122) was > 16 µM.
`Cc1nc(Nc2ncc(C(=O)Nc3c(C)cccc3Cl)s2)cc(N2CCN(CCO)CC2)n1` [DASATINIB] was tested, and the IC50 (NCI-H2196) was > 1.28 µM, the IC50 (NB14) was > 1.28 µM and the IC50 (NCI-H2081) was > 1.28 µM. The IC50 (NCI-H748) was > 1.28 µM, the IC50 (REH) was > 1.28 µM and the IC50 (DG-75) was > 1.28 µM. The IC50 (CHP-126) was > 1.28 µM, the IC50 (U-698-M) was > 1.28 µM and the IC50 (LB647-SCLC) was > 1.28 µM. The IC50 (SIG-M5) was > 1.28 µM, the IC50 (SK-MM-2) was > 1.28 µM and the IC50 (EHEB) was > 1.28 µM. For the same compound, the IC50 (LB996-RCC) was 0.00991 µM, the IC50 (TE-441-T) was > 1.28 µM and the IC50 (NCI-H2171) was > 1.28 µM. For the same compound, the IC50 (WSU-NHL) was > 1.28 µM, the IC50 (LU-165) was > 1.28 µM and the IC50 (A253 cell line) was > 1.28 µM. The IC50 (DMS-153) was > 1.28 µM, the IC50 (RPMI 8402) was > 1.28 µM and the IC50 (KMS-12-PE) was > 1.28 µM.
`COc1cc(C)c(Sc2cnc(NC(=O)c3ccc(CNC(C)C(C)(C)C)cc3)s2)cc1C(=O)N1CCN(C(C)=O)CC1` (stereo not given) was tested, and the IC50 (NCI-H2196) was > 10.2 µM, the IC50 (NB14) was > 10.2 µM and the IC50 (NCI-H2081) was > 10.2 µM. The IC50 (NCI-H748) was > 10.2 µM, the IC50 (REH) was > 10.2 µM and the IC50 (DG-75) was > 10.2 µM. The IC50 (CHP-126) was > 10.2 µM, the IC50 (U-698-M) was > 10.2 µM and the IC50 (LB647-SCLC) was > 10.2 µM. The IC50 (SIG-M5) was 8.07 µM, the IC50 (SK-MM-2) was > 10.2 µM and the IC50 (EHEB) was > 10.2 µM. The IC50 (LB996-RCC) was > 10.2 µM, the IC50 (TE-441-T) was > 10.2 µM and the IC50 (NCI-H2171) was > 10.2 µM. The IC50 (WSU-NHL) was > 10.2 µM, the IC50 (LU-165) was > 10.2 µM and the IC50 (A253 cell line) was > 10.2 µM. The IC50 (DMS-153) was > 10.2 µM, the IC50 (RPMI 8402) was > 10.2 µM and the IC50 (KMS-12-PE) was > 10.2 µM.
`CCNc1cc(N[C@H]2CC[C@@H](O)CC2)nc(Nc2ccc3c(ccn3Cc3ccccc3)c2)n1` was tested, and the IC50 (NCI-H2196) was > 5.12 µM, the IC50 (NB14) was > 5.12 µM and the IC50 (NCI-H2081) was > 5.12 µM. The IC50 (NCI-H748) was > 5.12 µM, the IC50 (REH) was > 5.12 µM and the IC50 (DG-75) was > 5.12 µM. For the same compound, the IC50 (CHP-126) was > 5.12 µM, the IC50 (U-698-M) was > 5.12 µM and the IC50 (LB647-SCLC) was > 5.12 µM. The IC50 (SIG-M5) was > 5.12 µM, the IC50 (SK-MM-2) was > 5.12 µM and the IC50 (EHEB) was > 5.12 µM. For the same compound, the IC50 (LB996-RCC) was > 5.12 µM, the IC50 (TE-441-T) was > 5.12 µM and the IC50 (NCI-H2171) was > 5.12 µM. The IC50 (WSU-NHL) was > 5.12 µM, the IC50 (LU-165) was > 5.12 µM and the IC50 (A253 cell line) was > 5.12 µM. The IC50 (DMS-153) was > 5.12 µM, the IC50 (RPMI 8402) was 3.48 µM and the IC50 (KMS-12-PE) was > 5.12 µM.
